This note sets out measurements from patent publication US6432983B1, “Benzothiophene compounds intermediates processes and methods of use” (Eli Lilly and Company, priority 1996, dated 2002).

Marks after values point to notes of the source that are not given here.

In this series the test system is ovariectomized rats. Kind of series: ovariectomized rat model of postmenopausal hyperlipidemia (uterine weight, uterine eosinophil peroxidase, serum cholesterol). Type of series: in vivo. Details: Uterine Eosinophil (Vmax): unit not given here. As to conditions: for Serum Cholest. % Dec: decrease versus ovariectomized controls. The source says:
Experimental models of postmenopausal hyperlipidemia are known in the art. Germane to this invention is the ovariectomized rat model which is detailed in U.S. Pat. No. 5,464,845.
Data presented in Table 1 show comparative results among ovariectomized rats, rats treated with 17-α-ethynyl estradiol(EE2), and rats treated with certain compounds of this invention. […] This uterine response to estrogen is well recognized in the art.
Not only did the compounds of the present invention reduce serum cholesterol compared to the ovariectomized animals, but the uterine weight was increased to lesser extent than those given EE2. Compared to estrogenic compounds known in the art, the benefit of serum cholesterol reduction while lessening the effect on uterine weight is unusual and desirable.
As expressed in the data below, estrogenicity also was assessed by evaluating the response of eosinophil infiltration into the uterus.
The data presented in Table 1 reflect the response per treatment group.

Where [1] appears, read: ovariectomized rats, dose 1.0 mg/kg.
The mark [2] stands for this setting: ovariectomized rats, dose 10.0 mg/kg.

On to `O=C(c1ccc(OCCCCN2CCCC2)cc1)c1c(-c2ccc(O)cc2)sc2cc(O)ccc12` [Example 14, [2-(4-Hydroxyphenyl)-6-hydroxybenzo[b]thien-3-yl][4-[4-(1-pyrrolidinyl)butyloxyl]phenyl]methanone], for which the “Serum Cholest. % Dec” value under setting [1] is 37.9* % and the “Serum Cholest. % Dec” value under setting [2] is 65.7* %. Also, the “Uterine Eosinophil (Vmax)” value reads like this: (rat, in vivo, 1 mg/kg) 24.3*; (rat, in vivo, 10 mg/kg) 66.5*. The “Uterine Weight % Inc” value (rat, in vivo, 1 mg/kg) is given as 21.4* % and the “Uterine Weight % Inc” value (rat, in vivo, 10 mg/kg) is 62.0* %.
For `O=C(c1ccc(OCCCCCCN2CCCC2)cc1)c1c(-c2ccc(O)cc2)sc2cc(O)ccc12` [Example 12, [2-(4-Hydroxyphenyl)-6-hydroxybenzo[b]thien-3-yl][4-[6-(1-pyrrolidinyl)hexyloxyl]phenyl]methanone], the “Serum Cholest. % Dec” value reads like this: under setting [1], 34.2* %; under setting [2], 74.0* %. The “Uterine Eosinophil (Vmax)” value reads like this: (rat, in vivo, 1 mg/kg) 2.6; (rat, in vivo, 10 mg/kg) 17.2*. In addition, the “Uterine Weight % Inc” value (rat, in vivo, 1 mg/kg) was −2.6% and the “Uterine Weight % Inc” value (rat, in vivo, 10 mg/kg) is recorded as 47.8* %.
Consider `O=C(c1ccc(OCCCCCCCN2CCCC2)cc1)c1c(-c2ccc(O)cc2)sc2cc(O)ccc12` [Example 11, [2-(4-Hydroxyphenyl)-6-hydroxybenzo[b]thien-3-yl][4-[7-(1-pyrrolidinyl)heptyloxyl]phenyl]methanone], for which the “Serum Cholest. % Dec” value under setting [1] is listed as 32.4* % and the “Serum Cholest. % Dec” value under setting [2] is 60.5* %. Moreover, the “Uterine Eosinophil (Vmax)” value reads like this: (rat, in vivo, 1 mg/kg) 5.9; (rat, in vivo, 10 mg/kg) 59.2*. The “Uterine Weight % Inc” value is, setting by setting: (rat, in vivo, 1 mg/kg) 9.3%; (rat, in vivo, 10 mg/kg) 64.0* %.
As to `C#C[C@]1(O)CC[C@H]2[C@@H]3CCc4cc(O)ccc4[C@H]3CC[C@@]21C` [EE2, 17-α-ethynyl estradiol, reference compound], where the note is “compared to the ovariectomized animals or to EE2”, the “uterine weight (in words)” value is given as “substantially greater than the uterine weight of the ovariectomized animals”. Where the note is “compared to the ovariectomized animals, EE2 orally at 0.1 mg/kg/day”, the “serum cholesterol (in words)” value is on record as “caused a decrease in serum cholesterol”. Further, the “Uterine Weight % Inc” value (ovariectomized rats, dose 0.1 mg/kg, % increase versus the ovariectomized controls) was 125.8* %. For the same compound, the “Uterine Eosinophil (Vmax)” value (ovariectomized rats, dose 0.1 mg/kg, Eosinophil peroxidase, Vmaximum) was 111.2*. In addition, under “ovariectomized rats, dose 0.1 mg/kg”, the “Serum Cholest. % Dec” value was 88.1* %. Further, the “eosinophil infiltration into the uterus (in words)” value (stromal layer of the ovariectomized rat uteri) was “substantial and expected increase in eosinophil infiltration”.
For `O=C(c1ccc(OCCCCCCCCN2CCCC2)cc1)c1c(-c2ccc(O)cc2)sc2cc(O)ccc12` [Preparation C, [2-(4-Hydroxyphenyl)-6-hydroxybenzo[b]thien-3-yl][4-[8-(1-pyrrolidinyl)octyloxyl]phenyl]methanone], the “Serum Cholest. % Dec” value by setting is: under setting [1], 31.3* %; under setting [2], 72.8* %. In addition, the “Uterine Eosinophil (Vmax)” value is listed as 4.2 (rat, in vivo, 1 mg/kg) and 40.3* (rat, in vivo, 10 mg/kg). In addition, the “Uterine Weight % Inc” value is given as 18.3* % (rat, in vivo, 1 mg/kg) and 69.3* % (rat, in vivo, 10 mg/kg).
Take `O=C(c1ccc(OCCCN2CCCC2)cc1)c1c(-c2ccc(O)cc2)sc2cc(O)ccc12` [Example 15, [2-(4-Hydroxyphenyl)-6-hydroxybenzo[b]thien-3-yl][4-[3-(1-pyrrolidinyl)propyloxyl]phenyl]methanone]: the “Serum Cholest. % Dec” value under setting [1] is 62.7* % and the “Serum Cholest. % Dec” value under setting [2] is reported as 64.0* %. Further, the “Uterine Eosinophil (Vmax)” value is on record as 51.6* (rat, in vivo, 1 mg/kg) and 137.3* (rat, in vivo, 10 mg/kg). Further, the “Uterine Weight % Inc” value runs as follows: (rat, in vivo, 1 mg/kg) 52.6* %; (rat, in vivo, 10 mg/kg) 58.2* %.
Regarding `O=C(c1ccc(OCCCCCN2CCCC2)cc1)c1c(-c2ccc(O)cc2)sc2cc(O)ccc12` [Example 13, [2-(4-Hydroxyphenyl)-6-hydroxybenzo[b]thien-3-yl][4-[5-(1-pyrrolidinyl)pentyloxyl]phenyl]methanone], the “Serum Cholest. % Dec” value reads like this: under setting [1], 36.4* %; under setting [2], 52.9* %. In addition, the “Uterine Eosinophil (Vmax)” value is, setting by setting: (rat, in vivo, 1 mg/kg) 5.8; (rat, in vivo, 10 mg/kg) 37.8*. Also, the “Uterine Weight % Inc” value is, setting by setting: (rat, in vivo, 1 mg/kg) 10.1%; (rat, in vivo, 10 mg/kg) 39.2* %.
